# Test results reported in patent publication US20230135635A1, “INHIBITORS OF ULK1/2 AND METHODS OF USING SAME” (SALK INSTITUTE FOR BIOLOGICAL STUDIES, priority 2020, published 2023).
# pIC50: −log10 of the molar value.
# Molecular target: T1, recombinant human ULK1 protein (1-649) (Homo sapiens, UniProt O75385)
# T1 construct: recombinant human ULK1 protein (1-649, SignalChem #U01-11G); purchased SignalChem U01-11G
# T1 sequence (O75385 1-649): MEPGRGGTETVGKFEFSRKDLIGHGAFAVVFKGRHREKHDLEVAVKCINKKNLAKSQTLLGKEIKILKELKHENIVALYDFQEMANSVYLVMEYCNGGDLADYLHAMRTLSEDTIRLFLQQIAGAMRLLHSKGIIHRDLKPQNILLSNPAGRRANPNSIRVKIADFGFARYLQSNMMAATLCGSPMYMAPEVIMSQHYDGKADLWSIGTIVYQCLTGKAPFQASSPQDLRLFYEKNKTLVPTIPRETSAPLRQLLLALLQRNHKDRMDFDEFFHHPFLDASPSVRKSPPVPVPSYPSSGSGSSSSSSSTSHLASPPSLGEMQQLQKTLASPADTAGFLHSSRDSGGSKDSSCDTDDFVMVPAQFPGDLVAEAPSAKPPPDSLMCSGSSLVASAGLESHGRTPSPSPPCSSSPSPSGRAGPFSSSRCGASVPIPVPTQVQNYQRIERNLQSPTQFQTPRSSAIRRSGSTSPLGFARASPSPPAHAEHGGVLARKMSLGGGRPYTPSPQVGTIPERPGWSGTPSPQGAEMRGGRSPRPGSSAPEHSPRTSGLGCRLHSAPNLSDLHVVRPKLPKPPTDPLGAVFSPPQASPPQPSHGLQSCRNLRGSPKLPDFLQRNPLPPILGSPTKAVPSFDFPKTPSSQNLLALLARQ
# Assay: ULK1 inhibition assay (ADP Glo)
# Assay type: biochemical
# Conditions: Table 1; 25 uM ATP, MBP substrate, one hour
# Method in brief: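 Recombinant ULK1 (2 ug/mL) phosphorylated myelin basic protein (80 ug/mL) at 25 uM ATP; ADP formed was detected by ADP-Glo after 1 h. Compounds ran in triplicate, 16-dose 3-fold serial dilution from 30 uM, to give IC50.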
row,Structure (SMILES),pIC50
1,CN1CCC(N2CCc3cc(Nc4ncc(C(F)(F)F)c(NC5CC5)n4)ccc3C2)CC1 [Compound A73],> 9.00
2,CS(=O)(=O)N1CCc2ccc(Nc3ncc(C(F)(F)F)c(NC4CC4)n3)cc2C1 [Compound A104],8.00 to 9.00
3,NC(=O)CN1CCc2cc(Nc3ncc(C(F)(F)F)c(NC4CC4)n3)ccc2C1 [Compound A39],< 8.00
4,"CNC(=O)c1ccccc1Nc1nc(Nc2ccc3c(c2)CCN(CC(C)O)C3)ncc1Br (stereo not drawn) [Compound A138, 2-{5-Bromo-2-[2-(2-hydroxy-propyl)-1,2,3,4-tetrahydro-isoquinolin-6-ylamino]-pyrimidin-4-ylamino}-N-methyl-benzamide]",< 8.00
5,N#CCN1CCc2cc(Nc3ncc(C(F)(F)F)c(NC4CC4)n3)ccc2C1 [Compound A45],> 9.00
6,FC(F)(F)c1cnc(Nc2ccc3c(c2)CCN(Cc2ccc[nH]2)C3)nc1NC1CC1 [Compound A93],8.00 to 9.00
7,NCC(=O)N1CCc2ccc(Nc3ncc(C(F)(F)F)c(NC4CC4)n3)cc2C1 [Compound A83],8.00 to 9.00
8,Cn1cc(CN2CCc3cc(Nc4ncc(C(F)(F)F)c(NC5CC5)n4)ccc3C2)cn1 [Compound A62],> 9.00
9,"CNC(=O)c1ccccc1Nc1nc(Nc2ccc3c(c2)CN(CCOC)CC3)ncc1Br [Compound A149, 2-{5-Bromo-2-[2-(2-methoxy-ethyl)-1,2,3,4-tetrahydro-isoquinolin-7-ylamino]-pyrimidin-4-ylamino}-N-methyl-benzamide]",< 8.00
10,CNCC(=O)N1CCc2cc(Nc3ncc(C(F)(F)F)c(NC4CC4)n3)ccc2C1 [Compound A35],> 9.00
11,NCC(=O)Nc1cnc(Nc2ccc3c(c2)CCNC3)nc1NC1CC1 [Compound A26],< 8.00
12,N[C@@H](CC(=O)O)C(=O)N1CCc2cc(Nc3ncc(C(F)(F)F)c(NC4CC4)n3)ccc2C1 (racemic) [Compound A66],> 9.00
13,N[C@@H](CO)C(=O)N1CCc2ccc(Nc3ncc(C(F)(F)F)c(NC4CC4)n3)cc2C1 [Compound A96],< 8.00
14,CC(C)(O)CN1CCc2cc(Nc3ncc(C(F)(F)F)c(NC4CC4)n3)ccc2C1 [Compound A18],> 9.00
15,FC(F)(F)c1cnc(Nc2ccc3c(c2)CN(CC2CCNC2)CC3)nc1NC1CC1 (stereo not drawn) [Compound A107],< 8.00
16,CC(C)(C)OC(=O)N1CCc2ccc(Nc3ncc(C(F)(F)F)c(NC4CC4)n3)cc2C1 [Compound A15],8.00 to 9.00
17,"CNC(=O)c1ccccc1Oc1nc(Nc2ccc3c(c2)CCN(CCOC)C3)ncc1Br [Compound A125, 2-((5-Bromo-2-((2-(2-methoxyethyl)-1,2,3,4-tetrahydroisoquinolin-6-yl)amino)pyrimidin-4-yl)oxy)-N-methylbenzamide]",< 8.00
18,CC(C)(C)OC(=O)N1CCc2cc(Nc3ncc([N+](=O)O)c(NC4CC4)n3)ccc2C1 [Compound A21],< 8.00
19,CN1CCN(C(=O)N2CCc3ccc(Nc4ncc(C(F)(F)F)c(NC5CC5)n4)cc3C2)CC1 [Compound A99],8.00 to 9.00
20,FC(F)(F)c1cnc(Nc2ccc3c(c2)CN(Cc2cncnc2)CC3)nc1NC1CC1 [Compound A108],> 9.00
21,FC(F)(F)c1cnc(Nc2ccc3c(c2)CN(Cc2ccoc2)CC3)nc1NC1CC1 [Compound A101],> 9.00

row,Structure (SMILES),pIC50
1,COC(=O)CC(=O)N1CCc2ccc(Nc3ncc(C(F)(F)F)c(NC4CC4)n3)cc2C1 [Compound A87],8.00 to 9.00
2,"CNC(=O)c1ccccc1Nc1nc(Nc2ccc3c(c2)CN(CCC(=O)O)CC3)ncc1Br [Compound A164, 3-{7-[5-Bromo-4-(2-methylcarbamoyl-phenylamino)-pyrimidin-2-ylamino]-3,4-dihydro-1H-isoquinolin-2-yl}-propionic acid]",< 8.00
3,CC(C)(C)OC(=O)N1CCc2cc(Nc3ncc(C(=O)O)c(NC4CC4)n3)ccc2C1 [Compound A30],< 8.00
4,CN1CCc2cc(Nc3ncc(C(F)(F)F)c(NC4CC4)n3)ccc2C1 [Compound A1],> 9.00
5,Nc1cnc(Nc2ccc3c(c2)CCNC3)nc1NC1CC1 [Compound A59],< 8.00
6,CN(C)c1ccc(CN2CCc3cc(Nc4ncc(C(F)(F)F)c(NC5CC5)n4)ccc3C2)cc1 [Compound A71],> 9.00
7,FC(F)(F)c1cnc(Nc2ccc3c(c2)CN(C2CNC2)CC3)nc1NC1CC1 [Compound A110],> 9.00
8,CN(C)C(=O)CN1CCc2cc(Nc3ncc(C(F)(F)F)c(NC4CC4)n3)ccc2C1 [Compound A74],> 9.00
9,Cn1cnc(CN2CCc3ccc(Nc4ncc(C(F)(F)F)c(NC5CC5)n4)cc3C2)c1 [Compound A111],8.00 to 9.00
10,"CNC(=O)c1ccccc1Nc1nc(Nc2ccc3c(c2)CN(Cc2ccccn2)CC3)ncc1Br [Compound A163, 2-[5-Bromo-2-(2-pyridin-2-ylmethyl-1,2,3,4-tetrahydro-isoquinolin-7-ylamino)-pyrimidin-4-ylamino]-N-methyl-benzamide]",< 8.00
11,"CNC(=O)c1ccccc1Nc1nc(Nc2ccc3c(c2)CCN(CCC(N)=O)C3)ncc1Br [Compound A142, 2-{5-Bromo-2-[2-(2-carbamoyl-ethyl)-1,2,3,4-tetrahydro-isoquinolin-6-ylamino]-pyrimidin-4-ylamino}-N-methyl-benzamide]",< 8.00
12,O=C(O)CCN1CCc2ccc(Nc3ncc(C(F)(F)F)c(NC4CC4)n3)cc2C1 [Compound A88],8.00 to 9.00
13,"CNC(=O)c1ccccc1Nc1nc(Nc2ccc3c(c2)CN(Cc2cccnc2)CC3)ncc1Br [Compound A159, 2-[5-Bromo-2-(2-pyridin-3-ylmethyl-1,2,3,4-tetrahydro-isoquinolin-7-ylamino)-pyrimidin-4-ylamino]-N-methyl-benzamide]",< 8.00
14,FC(F)(F)c1cnc(Nc2ccc3c(c2)CCN(CC2CCCN2)C3)nc1NC1CC1 (stereo not drawn) [Compound A40],8.00 to 9.00
15,FC(F)(F)c1cnc(Nc2ccc3c(c2)CN(Cc2ccccc2)CC3)nc1NC1CC1 [Compound A95],< 8.00
16,O=C(O)CCC(=O)N1CCc2cc(Nc3ncc(C(F)(F)F)c(NC4CC4)n3)ccc2C1 [Compound A20],> 9.00
17,FC(F)(F)c1cnc(Nc2ccc3c(c2)CCN(Cc2cc[nH]c2)C3)nc1NC1CC1 [Compound A42],> 9.00
18,CSCCN1CCc2ccc(Nc3ncc(C(F)(F)F)c(NC4CC4)n3)cc2C1 [Compound A81],> 9.00
19,"CNC(=O)c1ccccc1Nc1nc(Nc2ccc3c(c2)CCN(C(=O)CCC(=O)O)C3)ncc1Br [Compound A134, 4-{6-[5-Bromo-4-(2-methylcarbamoyl-phenylamino)-pyrimidin-2-ylamino]-3,4-dihydro-1H-isoquinolin-2-yl}-4-oxo-butyric acid]",< 8.00
20,CC(C)(C)OC(=O)C1Cc2ccc(Nc3ncc(C(F)(F)F)c(NC4CC4)n3)cc2C1 (stereo not drawn) [Compound A54],8.00 to 9.00

# Same assay, conditions: Table 2
row,Structure (SMILES),pIC50
1,COC(=O)c1ccccc1Oc1nc(Nc2cccc(C(N)=O)c2)ncc1Br [Compound B21],< 6.00
2,COC(=O)c1ccccc1Oc1nc(Nc2ccc3occc3c2)ncc1Br [Compound B35],< 6.00
3,COC(=O)c1ccccc1Oc1nc(Nc2ccc3[nH]cnc3c2)ncc1Br [Compound B22],< 6.00
4,"Oc1nc(Nc2ccc3c(c2)OCO3)ncc1C(F)(F)F [Compound B53, 2-(Benzo[d][1,3]dioxol-5-ylamino)-5-(trifluoromethyl)pyrimidin-4-ol]",< 6.00
5,COC(=O)c1ccccc1Oc1nc(Nc2ccc(N3CCN(C)CC3)cc2)ncc1Br [Compound B11],> 7.00
6,COC(=O)c1ccccc1Oc1nc(Nc2ccc3c(c2)OCCO3)ncc1Br [Compound B14],< 6.00
7,COC(=O)CN(C)C(=O)c1ccccc1Oc1nc(Nc2cc(OC)c(OC)c(OC)c2)ncc1Br [Compound B5],6.00 to 7.00
8,COC(=O)c1ccccc1Oc1nc(Nc2cccc(OC(F)(F)F)c2)ncc1Br [Compound B40],< 6.00
9,COC(=O)c1ccccc1Oc1nc(Nc2ccc(CO)cc2)ncc1Br [Compound B38],< 6.00
10,COc1cc(Nc2ncc(Br)c(Oc3ccccc3C(=O)O)n2)cc(OC)c1OC [Compound B4],6.00 to 7.00

# Same assay, conditions: Table 3
row,Structure (SMILES),pIC50
1,NC(=O)c1ccc(Nc2ncc(Br)c(Nc3ccccc3CO)n2)cc1 [Compound C14],7.00 to 8.30
2,"CNC(=O)c1ccccc1Nc1cc(C#N)nc(Nc2cc(OC)c(OC)c(OC)c2)n1 [Compound E8, 2-((6-Cyano-2-((3,4,5-trimethoxyphenyl)amino)pyrimidin-4-yl)amino)-N-methylbenzamide]",< 7.00
3,"CNC(=O)c1ccc(Nc2nc(Nc3cc(OC)c(OC)c(OC)c3)ncc2Br)cc1 [Compound E27, 4-((5-Bromo-2-((3,4,5-trimethoxyphenyl)amino)pyrimidin-4-yl)amino)-N-methylbenzamide]",< 7.00
4,"CNC(=O)c1ccccc1Nc1nc(Nc2ccc(OC)c(OC)c2)ncc1Br [Compound E16, 2-((5-Bromo-2-((3,4-dimethoxyphenyl)amino)pyrimidin-4-yl)amino)-N-methylbenzamide]",7.00 to 8.30
5,COc1cc(Nc2ncc(Br)c(Oc3ccccc3CO)n2)cc(OC)c1OC [Compound C1],< 7.00
6,NCCCNc1ncc(Br)c(Nc2ccccc2CO)n1 [Compound C15],< 7.00
